{"source": "patent US9512178B2", "about": "“Neurogenic brain-derived neurotrophic factor peptides” (Research Foundation for Mental Hygiene, Inc., priority 2012, dated 2016)", "key": {"BDNF and TrkB": {"system": "BDNF and TrkB", "assay": "Induction of BDNF and TrkB expression after pre-treatment with CHX or K252a", "assay_type": "cell-based, mouse", "conditions": "two days of treatment", "method": "(§1) Peptides were dissolved in water in serial dilutions of 10 mM, 1 mM, 100 μM and 10 μM from which the necessary amount was added directly to the culture medium to a final concentration of 0.05 μM, 1 μM, or 10 μM. The BDNF (Peprotech, NJ, USA) was used as a reference in concentrations of 20 ng/ml (0.79 nM) and 100 ng/ml (3.95 nM). Cycloheximide (CHX) (Sigma-Aldrich, St Louis, Mo., USA) was used for blocking protein synthesis. CHX original stock was 100 mg/ml (355.4 mM) in DMSO; from a second stock of 35.54 mM in DMSO, the dilutions were made to the final concentrations of 100 μM. The K252a (CALBIOCHEM/EMD) was used to inhibit the TrkB Receptor. From a stock of 100 μM in DMSO, K252a was diluted to a final working concentration of 200 nM. The E18 primary hippocampal cells were pre-treated with CHX or K252a 1 h prior to the addition of the peptides or BDNF and a time course of these treatments for 15 min, 60 min and 2 days was studied.\nTo evaluate whether the effect of B-5 and B-3 in induction of the expression of BDNF and TrkB was via the activation of the TrkB receptor and required signal transduction via TrkB and new protein synthesis, mouse embryonic E18 cultured hippocampal cells were pre-treated with the protein synthesis inhibitor, cycloheximide (CHX) or the Trk inhibitor K252a for 1 h, and then added Peptide B-5 at a concentration of 0.1 μM (the dose that gave the maximum induction of BDNF expression, FIGS. 5A and B) or BDNF 20 ng/ml as a positive control (FIG. 7C,D). A time course of these treatments was studied with Peptide B-5 or BDNF for 15 min, 60 min and two days."}, "TrkB receptor": {"molecular_target": "T1, TrkB receptor (Mus musculus, UniProt P15209)", "T1 construct": "endogenous in cells; host or cells: primary hippocampal neurons from embryonic day 18 C57BL/6 mice", "T1 sequence (P15209 32-821)": "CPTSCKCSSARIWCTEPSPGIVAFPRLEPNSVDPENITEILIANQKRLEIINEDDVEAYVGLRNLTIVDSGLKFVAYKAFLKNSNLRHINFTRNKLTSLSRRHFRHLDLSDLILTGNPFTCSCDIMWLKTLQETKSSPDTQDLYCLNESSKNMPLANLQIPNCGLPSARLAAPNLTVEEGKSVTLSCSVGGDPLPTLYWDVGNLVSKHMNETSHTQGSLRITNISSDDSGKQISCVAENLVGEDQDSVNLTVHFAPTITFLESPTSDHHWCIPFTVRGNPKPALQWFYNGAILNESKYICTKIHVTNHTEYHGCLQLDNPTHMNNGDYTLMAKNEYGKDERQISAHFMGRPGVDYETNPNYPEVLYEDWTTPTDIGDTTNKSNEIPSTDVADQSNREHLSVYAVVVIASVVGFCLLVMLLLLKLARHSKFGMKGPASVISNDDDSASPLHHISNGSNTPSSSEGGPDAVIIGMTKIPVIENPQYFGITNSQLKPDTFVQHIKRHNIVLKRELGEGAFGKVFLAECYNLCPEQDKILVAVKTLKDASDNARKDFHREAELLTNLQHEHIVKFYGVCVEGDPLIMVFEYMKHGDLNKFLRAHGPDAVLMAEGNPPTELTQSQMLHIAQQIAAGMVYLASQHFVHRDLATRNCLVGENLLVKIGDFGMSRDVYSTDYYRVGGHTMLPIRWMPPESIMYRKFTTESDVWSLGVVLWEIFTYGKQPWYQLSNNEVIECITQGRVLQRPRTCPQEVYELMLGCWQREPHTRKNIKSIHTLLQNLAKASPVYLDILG", "assay": "TrkB phosphorylation (Tyr 706) and TrkB level in primary E18 hippocampal cells, with or without K252a", "assay_type": "cell-based", "conditions": "K252a pretreatment 1 h (200 nM), then BDNF or peptides B-5 or B-3 for 5 min", "method": "as §1\n(§2) Following treatment in 6-well plates, cells were washed 2× in glucose buffered saline, GBS (5.4 mM KCl, 138 mM NaCl, 22 mM glucose, and 2 mM Na—KPO pH 7.2), and then lysed by 5 min incubation on ice in 100 or 150 μl of ice-cold RIPA buffer (PBS, 1% w/v NP-40 from Fisher Scientific, 0.1% w/v SDS, and 0.5% w/v sodium desoxycholate) containing 1 mM AEBSF (Gold Biotechnology, St. Louis, Mo., USA), 10 μg/ml aprotinin (Sigma-Aldrich, St. Louis, Mo., USA), and 20 μg/ml of leupeptin and pepstatin (US Biochemicals, Cleveland, Ohio, USA), and phosphatase inhibitors: NaF, Na orthovanadate, (3-glycerophosphate, and microcystein (Sigma-Aldrich, St. Louis, Mo., USA). Extracts were prepared by collecting and pooling a minimum of 2 wells by scraping, and lysates were centrifuged at 20,000×g for 10 min at 4° C. Protein concentration of each cell lysate was determined using the BCA kit (Thermo Scientific, Rockford, Ill., USA). The lysates (7.5-20 μg total protein) were separated on 10% SDS-PAGE gels (except for BDNF where 12% gels were employed) and transferred to 0.45 μm PVDF membrane (Pall, Pensacola, Fla., USA) for probing with antibodies as noted. Blots were blocked for 1 hr at 37° C. in 1×TBST (0.05% Tween 20 in TBS) containing 5% w/v blotting grade dry milk (Bio-rad, Hercules, Calif., USA), incubated in primary antibody overnight in blocking buffer at 4° C., washed 3×10 min in TBST at room temperature, followed by incubation with secondary antibody, i.e., peroxidase-conjugated anti-mouse or anti rabbit IgG (Jackson ImmunoResearch Laboratories, West Grove, Pa., USA) diluted in blocking buffer. Blots were washed 3×10 min in TBST and immunoreactive protein bands were visualized with enhanced chemiluminescence (ECL) reagents (Pierce, Rockford, Ill., USA). The ECL films of the blots were scanned and analyzed using Multi Gauge software version 3.0 (Fujifilm, Tokyo, Japan).\nThe following primary antibodies were used: rabbit polyclonal anti-NFM (1:1000; Chemicon/Millipore, Billerica, Mass., USA); mouse monoclonal anti-NeuN, clone A60 (1:500; Millipore, Billerica, Mass., USA); rabbit polyclonal anti-Tuj-1, (3—III-tubulin (Covance; 1:800, Emeryville, Calif., USA); mouse monoclonal SMI 52 to the adult isoforms of MAP-2, MAP2a,b (1:1000; Covance, Emeryvilly, Calif., USA); rabbit polyclonal anti-Synapsin I (1:2000; Stressgen, Farmingdale, N.Y., USA); rabbit monoclonal anti-PSD95 (1:1000; Cell signaling, Danvers, Mass., USA); anti tau 92e (1:10000); mouse monoclonal anti-BDNF (1:1000; Calbiochem, Gibbstown, N.J., USA); rabbit polyclonal anti-TrkB (total) (1:500; Santa Cruz Biotechnology, Santa Cruz, Calif., USA); rabbit polyclonal anti-pTrkB (Tyr706) (1:400; Santa Cruz Biotechnology, Santa Cruz, Calif., USA), TrkC (1:1000; Cruz Biotechnology, Santa Cruz, Calif., USA); and pTrkY490 (1:500; Upstate USA Inc., Charlottesville, Va., USA). For loading control, the blots were developed with rabbit polyclonal antibody to GAPDH (1:2000; Santa Cruz Biotechnology, Santa Cruz, Calif., USA). […]"}, "[1]": {"system": "E18 primary hippocampal neurons", "assay": "Western blots of neuronal markers, densitometry", "assay_type": "cell-based, mouse", "conditions": "5 days", "method": "as §2\n(§3) The following primary antibodies were used: rabbit polyclonal anti-NFM (1:1000; Chemicon/Millipore, Billerica, Mass., USA); mouse monoclonal anti-NeuN, clone A60 (1:500; Millipore, Billerica, Mass., USA); rabbit polyclonal anti-Tuj-1, (3—III-tubulin (Covance; 1:800, Emeryville, Calif., USA); mouse monoclonal SMI 52 to the adult isoforms of MAP-2, MAP2a,b (1:1000; Covance, Emeryvilly, Calif., USA); rabbit polyclonal anti-Synapsin I (1:2000; Stressgen, Farmingdale, N.Y., USA); rabbit monoclonal anti-PSD95 (1:1000; Cell signaling, Danvers, Mass., USA); anti tau 92e (1:10000); mouse monoclonal anti-BDNF (1:1000; Calbiochem, Gibbstown, N.J., USA); rabbit polyclonal anti-TrkB (total) (1:500; Santa Cruz Biotechnology, Santa Cruz, Calif., USA); rabbit polyclonal anti-pTrkB (Tyr706) (1:400; Santa Cruz Biotechnology, Santa Cruz, Calif., USA), TrkC (1:1000; Cruz Biotechnology, Santa Cruz, Calif., USA); and pTrkY490 (1:500; Upstate USA Inc., Charlottesville, Va., USA). For loading control, the blots were developed with rabbit polyclonal antibody to GAPDH (1:2000; Santa Cruz Biotechnology, Santa Cruz, Calif., USA).\nTo biochemically study the effect of BDNF peptides in inducing expression of neuronal markers, protein samples were recovered from cells treated with peptides B-5, B-4, B-3, or vehicle for five days. As a positive control, protein samples were collected from cells treated with BDNF at 20 ng/ml (0.79 nM) or 100 ng/ml (3.95 nM) (FIG. 3D, E). Western blots of the cell lysates were developed with antibodies to Synapsin I (presynaptic marker), PSD95 (postsynaptic marker), NeuN (late neuronal marker), NFM (early neuronal marker), MAP2 (dendritic marker), 0-IIItubulin (early neuronal marker), and tau 92e (axonal marker)."}, "BDNF": {"system": "BDNF", "assay": "BDNF expression, Western blot, 5 days treatment", "assay_type": "cell-based, mouse", "conditions": "vs control medium", "method": "as §2, §3\nTo investigate the molecular mechanism by which the BDNF peptides promoted neurogenic/neurotrophic activities, the hippocampal primary cultured neurons were treated with the peptides or BDNF for five days and compared with the control medium treated cells."}, "[2]": {"system": "mouse E18 primary hippocampal neurons", "assay": "Toxicity of the peptides: phase contrast morphology and LDH assay, 5 days treatment", "assay_type": "cell-based", "conditions": "1 μM", "excerpt": "To screen these peptides, primary neuronal cell cultures were used from embryonic day 18 (E18) C57BL/6 mouse hippocampus. At the fourth day in vitro (DIV), the culture medium was exchanged with the medium containing the peptides. The primary neuronal cultures were established as taught in the art (see, e.g., Cardenas-Aguayo Mdel, Santa-Olalla et al. 2003, hereby incorporate by reference). Briefly, C57BL/6 time pregnant E18 female mice from Charles River Labs were anesthetized and killed by cervical dislocation following our Institutional Animal Care and Use Committee (IACUC) regulations and approved protocol. Embryos were removed and placed in cold Hibernate A (available from Brain bits, Springfield, Ill., USA), and all of the following steps were performed in ice-cold Hibernate A, under a stereoscopic (dissection) microscope placed in a laminar flow hood. Fetal brains were removed carefully and fore brain were separated. Then, the hippocampus, including the cortex surrounding the area of the hippocampus, was dissected and cut into small pieces using microsurgical scissors. The cut tissue was transferred with number 5 forceps to 15 ml tubes containing 0.1% trypsin in Versene (Invitrogen Life Technologies, Grand Island, N.Y., USA) and incubated for 15 min at 37° C. followed by inactivation with 10% fetal bovine serum (FBS) in Neurobasal complete medium (Neurobasal Medium supplemented with 2×B-27, 0.30% glutamine, and penicillin/streptomycin 0.1 mg/ml and 0.1 U/ml respectively). All medium components were purchased from Invitrogen, Grand Island, N.Y., USA. […]\nTo study any toxic effect of the peptides, mouse E18 primary hippocampal neurons were treated with the five BDNF peptides individually for up to 5 days at different doses [5 nM, 25 nM, 50 nM (data not shown), 100 nM (0.1 μM), 1000 nM (1 μM), and 10,000 nM (10 μM)]. […] Accordingly, there was no significant change in the viability of cells treated with any of the peptides as evaluated by the lactate dehydrogenase (LDH) assay (see FIG. 2B). […]"}, "[3]": {"system": "primary E18 hippocampal cells", "assay": "Rescue of H2O2-induced neurotoxicity (LDH assay)", "assay_type": "cell-based, mouse", "conditions": "then treatment 24 h", "method": "Evaluation of cell death and cell viability was performed using the LDH kit (Promega, Madison Wis., USA), following manufactures instructions. Percentages of cell death and cell viability were plotted separately.\nIn order to evaluate the potential neuroprotective effect of BDNF peptides, the primary E18 hippocampal cells were challenged with 0, 60, 80 and 100 μM H2O2 for 6 hours, and then cells were washed with culture medium and fresh culture medium was added containing the peptides B-5 or B-3 or BDNF or BDNF plus B-3 (see FIGS. 4A and 4B). After 24 hours, the cell viability was assayed by the LDH method."}, "[4]": {"conditions": "phase III, amyotrophic lateral sclerosis, daily subcutaneous administration; cited from earlier work"}}, "data": [{"compound": "C[C@@H]1C[C@@H]([C@H](O)CC2CC(=O)NC(=O)C2)C(=O)[C@@H](C)C1", "note": "[CHX, Cycloheximide, reference compound]", "values": [{"measurement": "block of the increase in expression of BDNF caused by BDNF peptides or BDNF", "setting": "BDNF and TrkB; CHX pre-exposure 1 h (100 μM)", "result": "can be blocked"}]}, {"compound": "COC(=O)[C@@]1(O)C[C@H]2O[C@]1(C)n1c3ccccc3c3c4c(c5c6ccccc6n2c5c31)C(=O)NC4", "note": "[Peptide K252a, reference compound]", "values": [{"measurement": "block of the increase in expression of BDNF caused by BDNF peptides or BDNF", "setting": "BDNF and TrkB; K252a pre-exposure 1 h (200 nM)", "result": "can be blocked"}, {"measurement": "inhibition of the phosphorylation of TrkB at Tyrosine 706", "setting": "TrkB receptor", "result": "clear inhibition"}]}, {"compound": "Ac-D-K-R-H-CONH2 [Peptide B-4]", "values": [{"measurement": "expression of NeuN (Western blot)", "setting": "[1]; 0.1 μM", "result": "increased the expression of NeuN"}, {"measurement": "expression of PSD95 (Western blot)", "setting": "[1]; 0.1 μM", "result": "significant increment"}, {"measurement": "level of tau (92e antibody, Western blot)", "setting": "[1]", "result": "Neither BNDF nor peptides B-3, B-4 or B-5 had any significant effect"}, {"measurement": "expression of BDNF (Western blot)", "setting": "BDNF", "result": "induced the expression of BDNF"}]}, {"compound": "Ac-R-R-G-E-CONH2 [Peptide B-1]", "values": [{"measurement": "cell death (LDH assay) vs vehicle treated cells", "setting": "[2]", "result": "significant reduction in cell death"}]}, {"compound": "BDNF: Brain derived neurotrophic factor (Peprotech), used as a reference at 20 ng/ml and 100 ng/ml", "values": [{"measurement": "cell death (LDH)", "setting": "[3]; 0 μM H2O2 6 h", "result": "not statistically significant"}, {"measurement": "cell viability (LDH)", "setting": "[3]; 0 μM H2O2 6 h", "result": "increased cell viability significantly"}, {"measurement": "cell death (LDH)", "setting": "[3]; 60 μM H2O2 6 h", "result": "some reduction in cell death"}, {"measurement": "cell viability (LDH)", "setting": "[3]; 60 μM H2O2 6 h", "result": "increased cell viability significantly"}, {"measurement": "cell death (LDH)", "setting": "[3]; 80 μM H2O2 6 h", "result": "not statistically significant"}, {"measurement": "cell death (LDH)", "setting": "[3]; 100 μM H2O2 6 h", "result": "not statistically significant"}, {"measurement": "NFM expression (Western blot)", "setting": "[1]; 20 ng/ml", "result": "increased NFM expression in a similar way"}, {"measurement": "expression of PSD95 (Western blot)", "setting": "[1]; 20 ng/ml", "result": "increase"}, {"measurement": "NFM expression (Western blot)", "setting": "[1]; 100 ng/ml", "result": "increased NFM expression in a similar way"}, {"measurement": "expression of PSD95 (Western blot)", "setting": "[1]; 100 ng/ml", "result": "increase"}, {"measurement": "level of tau (92e antibody, Western blot)", "setting": "[1]", "result": "Neither BNDF nor peptides B-3, B-4 or B-5 had any significant effect"}, {"measurement": "clinical benefit", "setting": "[4]", "result": "no clinical benefit"}]}]}
